Here are results for 2 compounds from ChEMBL document CHEMBL4334438, “Discovery of novel glycogen synthase kinase-3α inhibitors: Structure-based virtual screening, preliminary SAR and biological evaluation for treatment of acute myeloid leukemia” (Eur J Med Chem, 2019).

Experiment [1] addresses Ephrin type-A receptor 7 (Homo sapiens) (UniProt Q15375). As to the kind of experiment: Inhibition of recombinant human EphA7 (613 to 909 residues) assessed as residual activity at 1 uM using KTFCGTPEYLAPEVRREPRILSEEEQEMFRDFDYIADWC as substrate at 40 mins in presence of [gamma-33ATP] by scintillation counting based radiometry assay relative to control.
Experiment [2] concerns the target Casein kinase I isoform gamma-2 (Homo sapiens) (UniProt P78368). Briefly: Inhibition of recombinant human CK1gamma2 (18 to end residues) assessed as residual activity at 1 uM using KRRRALS(p)VASLPGL as substrate incubated for 40 mins in presence of [gamma-33ATP] by scintillation counting based radiometry assay relative to control.
For experiment [3], the target named is Serine/threonine-protein kinase BRSK1 (Homo sapiens) (UniProt Q8TDC3). As to the kind of experiment: Inhibition of recombinant human BRSK1 ( 2 to end residues) assessed as residual activity at 1 uM using KKKVSRSGLYRSPSMPENLNRPR as substrate incubated for 40 mins in presence of [gamma-33ATP] by scintillation counting based radiometry assay relative to control.

The test system of experiment [4] is Mast/stem cell growth factor receptor Kit (Homo sapiens), P10721 [V560G]. As to the kind of experiment: Inhibition of recombinant human C-Kit V560G mutant (544 to end residues) assessed as residual activity at 1 uM poly(Glu, Tyr) 4:1 as substrate incubated 40 mins in presence of [gamma-33ATP] by scintillation counting based radiometry assay relative to control.
Chain of Mast/stem cell growth factor receptor Kit (Homo sapiens), P10721 [V560G] (P10721 whole entry V560G): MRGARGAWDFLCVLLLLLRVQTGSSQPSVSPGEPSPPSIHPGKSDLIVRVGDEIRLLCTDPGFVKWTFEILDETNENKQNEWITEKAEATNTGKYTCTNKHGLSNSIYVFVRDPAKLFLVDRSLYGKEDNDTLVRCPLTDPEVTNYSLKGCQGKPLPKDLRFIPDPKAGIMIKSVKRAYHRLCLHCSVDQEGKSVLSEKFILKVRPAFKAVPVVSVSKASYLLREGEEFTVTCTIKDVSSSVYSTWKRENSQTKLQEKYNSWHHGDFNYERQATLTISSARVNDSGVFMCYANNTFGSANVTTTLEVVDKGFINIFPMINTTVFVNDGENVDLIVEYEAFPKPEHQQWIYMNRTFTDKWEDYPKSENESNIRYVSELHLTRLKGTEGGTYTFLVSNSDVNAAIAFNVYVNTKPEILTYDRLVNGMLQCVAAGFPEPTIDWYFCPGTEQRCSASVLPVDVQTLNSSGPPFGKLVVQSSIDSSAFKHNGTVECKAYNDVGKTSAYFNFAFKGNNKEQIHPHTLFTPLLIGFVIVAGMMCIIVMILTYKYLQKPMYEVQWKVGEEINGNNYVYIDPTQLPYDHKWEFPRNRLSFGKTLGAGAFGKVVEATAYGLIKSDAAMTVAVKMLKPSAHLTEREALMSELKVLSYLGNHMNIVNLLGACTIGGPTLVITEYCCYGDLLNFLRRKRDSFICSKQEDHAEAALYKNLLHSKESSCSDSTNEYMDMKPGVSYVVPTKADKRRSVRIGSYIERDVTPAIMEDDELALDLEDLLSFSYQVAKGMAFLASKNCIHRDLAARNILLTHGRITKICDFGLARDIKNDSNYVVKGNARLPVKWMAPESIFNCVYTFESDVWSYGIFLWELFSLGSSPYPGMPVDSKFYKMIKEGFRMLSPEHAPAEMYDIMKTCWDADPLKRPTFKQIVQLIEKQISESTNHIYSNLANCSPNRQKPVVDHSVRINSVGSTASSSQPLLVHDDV

The target in experiment [5] is MAP kinase-interacting serine/threonine-protein kinase 2 (Homo sapiens) (UniProt Q9HBH9). As to the kind of experiment: Inhibition of recombinant full-length human Mnk2 assessed as residual activity at 1 uM using myelin basic protein as substrate measured after 40 mins in presence of [gamma33P]ATP by scintillation counting method.
Chain of MAP kinase-interacting serine/threonine-protein kinase 2 (Homo sapiens) (Q9HBH9 whole entry, looked up): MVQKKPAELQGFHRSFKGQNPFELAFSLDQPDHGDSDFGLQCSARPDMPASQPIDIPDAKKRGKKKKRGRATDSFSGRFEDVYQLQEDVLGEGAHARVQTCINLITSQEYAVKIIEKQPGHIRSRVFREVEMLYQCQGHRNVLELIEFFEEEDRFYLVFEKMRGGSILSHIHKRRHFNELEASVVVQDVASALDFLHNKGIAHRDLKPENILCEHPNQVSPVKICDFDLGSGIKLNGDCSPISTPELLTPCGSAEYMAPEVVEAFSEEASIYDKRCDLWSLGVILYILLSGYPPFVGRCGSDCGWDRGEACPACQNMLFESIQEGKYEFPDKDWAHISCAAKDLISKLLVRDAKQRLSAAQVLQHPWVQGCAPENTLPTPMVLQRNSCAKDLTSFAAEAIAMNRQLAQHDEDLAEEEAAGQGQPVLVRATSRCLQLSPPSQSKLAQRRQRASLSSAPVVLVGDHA
For experiment [6], the target named is Serine/threonine-protein kinase 16 (Homo sapiens) (UniProt O75716). Briefly: Inhibition of human STK16 assessed as residual activity at 1 uM by radiometric method relative to control.
The target of experiment [7] is NT-3 growth factor receptor (Homo sapiens) (UniProt Q16288). As to the kind of experiment: Inhibition of human TrkC (510 to end residues) assessed as residual activity at 1 uM using GEEPLYWSFPAKKK as substrate measured after 40 mins in presence of [gamma33P]ATP by scintillation counting method relative to control.
Chain of NT-3 growth factor receptor (Homo sapiens) (Q16288 32-839 limits assumed): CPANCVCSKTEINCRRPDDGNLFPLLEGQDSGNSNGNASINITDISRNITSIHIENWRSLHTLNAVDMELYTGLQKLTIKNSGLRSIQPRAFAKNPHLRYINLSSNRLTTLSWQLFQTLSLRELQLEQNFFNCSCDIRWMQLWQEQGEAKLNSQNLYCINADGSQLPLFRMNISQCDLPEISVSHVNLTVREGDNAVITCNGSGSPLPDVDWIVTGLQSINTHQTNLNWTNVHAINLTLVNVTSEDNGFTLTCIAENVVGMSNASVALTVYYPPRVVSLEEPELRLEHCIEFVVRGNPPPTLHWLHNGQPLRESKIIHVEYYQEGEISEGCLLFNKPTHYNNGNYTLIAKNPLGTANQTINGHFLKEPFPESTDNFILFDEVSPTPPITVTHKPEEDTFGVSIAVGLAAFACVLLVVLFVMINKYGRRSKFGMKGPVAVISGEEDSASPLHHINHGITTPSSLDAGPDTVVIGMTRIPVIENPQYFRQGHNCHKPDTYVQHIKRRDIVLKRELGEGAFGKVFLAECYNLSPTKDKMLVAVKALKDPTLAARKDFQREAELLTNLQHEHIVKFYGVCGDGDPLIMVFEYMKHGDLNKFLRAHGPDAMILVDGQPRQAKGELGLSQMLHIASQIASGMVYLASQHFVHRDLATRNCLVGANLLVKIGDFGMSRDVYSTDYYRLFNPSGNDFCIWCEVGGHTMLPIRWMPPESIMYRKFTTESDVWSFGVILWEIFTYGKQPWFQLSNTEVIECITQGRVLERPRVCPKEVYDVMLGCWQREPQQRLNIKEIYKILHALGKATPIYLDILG
Experiment [8] deals with Phosphatidylinositol 3-kinase C2 domain-containing subunit gamma (Homo sapiens) (UniProt O75747). Briefly: Inhibition of recombinant human PI3KC2gamma (468 to 1203 residues) at 1 uM assessed as residual activity at 1 uM using phosphatidylinositol as substrate measured after 40 mins by HTRF assay.
Chain of Phosphatidylinositol 3-kinase C2 domain-containing subunit gamma (Homo sapiens) (O75747 whole entry, the tested form may be a part): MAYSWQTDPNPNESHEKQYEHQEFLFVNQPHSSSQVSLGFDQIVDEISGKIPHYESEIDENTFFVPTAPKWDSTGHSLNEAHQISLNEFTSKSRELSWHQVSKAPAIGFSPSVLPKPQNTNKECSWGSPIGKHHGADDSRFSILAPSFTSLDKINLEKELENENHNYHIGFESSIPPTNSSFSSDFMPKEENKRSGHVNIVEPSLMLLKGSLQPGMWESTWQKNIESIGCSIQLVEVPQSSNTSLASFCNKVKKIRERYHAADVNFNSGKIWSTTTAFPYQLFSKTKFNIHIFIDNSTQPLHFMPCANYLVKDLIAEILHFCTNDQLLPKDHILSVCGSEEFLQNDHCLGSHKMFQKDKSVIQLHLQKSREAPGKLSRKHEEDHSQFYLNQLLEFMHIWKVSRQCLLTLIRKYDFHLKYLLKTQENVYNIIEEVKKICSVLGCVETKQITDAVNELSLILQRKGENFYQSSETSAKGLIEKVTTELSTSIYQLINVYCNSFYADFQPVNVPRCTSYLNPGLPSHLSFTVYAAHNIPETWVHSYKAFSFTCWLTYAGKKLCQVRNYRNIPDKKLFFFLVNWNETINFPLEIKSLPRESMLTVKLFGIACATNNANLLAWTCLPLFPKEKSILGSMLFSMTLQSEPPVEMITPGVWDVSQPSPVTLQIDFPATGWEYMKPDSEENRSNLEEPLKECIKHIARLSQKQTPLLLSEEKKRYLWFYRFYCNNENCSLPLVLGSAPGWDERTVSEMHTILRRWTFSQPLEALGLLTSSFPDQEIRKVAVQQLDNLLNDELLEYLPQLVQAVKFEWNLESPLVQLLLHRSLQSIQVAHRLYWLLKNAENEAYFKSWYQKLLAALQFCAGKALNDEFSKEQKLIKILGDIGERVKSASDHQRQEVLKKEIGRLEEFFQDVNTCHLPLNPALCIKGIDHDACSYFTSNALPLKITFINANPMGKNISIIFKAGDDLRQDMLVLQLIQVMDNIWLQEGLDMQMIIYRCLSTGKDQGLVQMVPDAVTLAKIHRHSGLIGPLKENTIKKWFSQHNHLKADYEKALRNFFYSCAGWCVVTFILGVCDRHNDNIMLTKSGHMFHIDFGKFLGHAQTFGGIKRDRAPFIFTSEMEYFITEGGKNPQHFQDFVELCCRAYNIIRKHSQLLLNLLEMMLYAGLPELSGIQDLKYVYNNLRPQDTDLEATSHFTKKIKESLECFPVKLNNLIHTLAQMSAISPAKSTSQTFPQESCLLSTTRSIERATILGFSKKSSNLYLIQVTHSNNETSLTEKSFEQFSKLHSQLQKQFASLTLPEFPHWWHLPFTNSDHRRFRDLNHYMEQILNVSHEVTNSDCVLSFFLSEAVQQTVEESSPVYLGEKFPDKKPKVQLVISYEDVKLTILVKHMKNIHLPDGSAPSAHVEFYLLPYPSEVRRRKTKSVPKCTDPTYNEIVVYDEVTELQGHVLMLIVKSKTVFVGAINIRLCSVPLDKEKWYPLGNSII
Experiment [9] deals with Insulin receptor-related protein (Homo sapiens) (UniProt P14616). As to the kind of experiment: Inhibition of human IRR (943 to 1266 residues) assessed as residual activity at 1 uM using myelin basic protein as substrate after 40 mins by [gamma-33ATP] radiometric assay relative to control.
For experiment [10], the target named is Calcium/calmodulin-dependent protein kinase type 1B (Homo sapiens) (UniProt Q6P2M8). As to the kind of experiment: Inhibition of recombinant full length human CaMKIbeta assessed as residual activity at 1 uM using KKLRRTLSFAEP as substrate incubated for 40 mins in presence of [gamma-33ATP] by scintillation counting based radiometry assay relative to control.
Chain of Calcium/calmodulin-dependent protein kinase type 1B (Homo sapiens) (Q6P2M8 whole entry): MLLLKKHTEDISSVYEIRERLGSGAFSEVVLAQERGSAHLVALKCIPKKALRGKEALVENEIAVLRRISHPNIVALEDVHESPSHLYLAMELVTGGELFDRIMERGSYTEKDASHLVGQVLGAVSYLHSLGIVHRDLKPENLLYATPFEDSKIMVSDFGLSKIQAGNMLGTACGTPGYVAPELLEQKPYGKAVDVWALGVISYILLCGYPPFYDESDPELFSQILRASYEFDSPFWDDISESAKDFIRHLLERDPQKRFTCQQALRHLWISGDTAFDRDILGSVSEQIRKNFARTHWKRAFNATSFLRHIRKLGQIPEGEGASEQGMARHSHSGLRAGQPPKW

Experiment [11] addresses Tyrosine-protein kinase CSK (Homo sapiens) (UniProt P41240). As to the kind of experiment: Inhibition of recombinant human CSK assessed as residual activity at 1 uM poly(Glu, Tyr) 4:1 as substrate incubated 40 mins in presence of [gamma-33ATP] by scintillation counting based radiometry assay relative to control.
Experiment [12] has as its target Serine/threonine-protein kinase Chk1 (Homo sapiens) (UniProt O14757). As to the kind of experiment: Inhibition of recombinant full length human CHK1 assessed as residual activity at 1 uM using KKKVSRSGLYRSP as substrate incubated for 40 mins in presence of [gamma-33ATP] by scintillation counting based radiometry assay relative to control.
Experiment [13] addresses Serine/threonine-protein kinase DCLK2 (Homo sapiens) (UniProt Q8N568). Briefly: Inhibition of recombinant human DCAMKL2 (376 to end residues) assessed as residual activity at 1 uM using KKLNRTLSFAEPG as substrate at 40 mins in presence of [gamma-33ATP] by scintillation counting based radiometry assay relative to control.
The target in experiment [14] is Serine/threonine-protein kinase VRK1 (Homo sapiens) (UniProt Q99986). Briefly: Inhibition of human VRK1 assessed as residual activity at 1 uM by radiometric method relative to control.
Experiment [15] concerns the target Dual specificity tyrosine-phosphorylation-regulated kinase 3 (Homo sapiens) (UniProt O43781). As to the kind of experiment: Inhibition of recombinant human DYRK3 assessed as residual activity at 1 uM using RRRFRPASPLRGPPK as substrate at 40 mins in presence of [gamma-33ATP] by scintillation counting based radiometry assay relative to control.
Experiment [16] addresses Cyclin-dependent kinase-like 2 (Homo sapiens) (UniProt Q92772). Briefly: Inhibition of recombinant full length human CDKL2 assessed as residual activity at 1 uM in presence of [gamma-33ATP] by scintillation counting based radiometry assay relative to control.
Experiment [17] deals with Mitogen-activated protein kinase 13 (Homo sapiens) (UniProt O15264). As to the kind of experiment: Inhibition of recombinant human full length SAPK4 assessed as residual activity at 1 uM using myelin basic protein as substrate measured after 40 mins in presence of [gamma33P]ATP by scintillation counting method relative to control.
Experiment [18] concerns the target Serine/threonine-protein kinase Nek1 (Homo sapiens) (UniProt Q96PY6). As to the kind of experiment: Inhibition of recombinant human NEK1 (1 to 505 residues) assessed as residual activity at 1 uM using RLGRDKYKTLRQI as substrate measured after 40 mins in presence of [gamma33P]ATP by scintillation counting based radiometry assay relative to control.
In experiment [19] the target is Protein kinase C iota type (Homo sapiens) (UniProt P41743). As to the kind of experiment: Inhibition of recombinant full-length human PKCiota assessed as residual activity at 1 uM using ERMRPRKRQGSVRRRV as substrate incubated for 40 mins in presence of [gamma33P]ATP by scintillation counting based radiometry assay relative to control.
Experiment [20] concerns the target Serine/threonine-protein kinase MRCK beta (Homo sapiens) (UniProt Q9Y5S2). Briefly: Inhibition of recombinant human MRCKbeta (1 to 473 residues) assessed as residual activity at 1 uM using KKRNRTLTV as substrate measured after 40 mins in presence of [gamma33P]ATP by scintillation counting method relative to control.
The target of experiment [21] is LIM domain kinase 2 (Homo sapiens) (UniProt P53671). Briefly: Inhibition of recombinant human LIMK2 assessed as residual activity after 1 uM by radiometry assay relative to control.
For experiment [22], the target named is Protein-tyrosine kinase 6 (Homo sapiens) (UniProt Q13882). Briefly: Inhibition of recombinant full length human BRK assessed as residual activity at 1 uM using poly(Glu, Tyr) 4:1 as substrate incubated for 40 mins in presence of [gamma-33ATP] by scintillation counting based radiometry assay relative to control.
Chain of Protein-tyrosine kinase 6 (Homo sapiens) (Q13882 whole entry, looked up): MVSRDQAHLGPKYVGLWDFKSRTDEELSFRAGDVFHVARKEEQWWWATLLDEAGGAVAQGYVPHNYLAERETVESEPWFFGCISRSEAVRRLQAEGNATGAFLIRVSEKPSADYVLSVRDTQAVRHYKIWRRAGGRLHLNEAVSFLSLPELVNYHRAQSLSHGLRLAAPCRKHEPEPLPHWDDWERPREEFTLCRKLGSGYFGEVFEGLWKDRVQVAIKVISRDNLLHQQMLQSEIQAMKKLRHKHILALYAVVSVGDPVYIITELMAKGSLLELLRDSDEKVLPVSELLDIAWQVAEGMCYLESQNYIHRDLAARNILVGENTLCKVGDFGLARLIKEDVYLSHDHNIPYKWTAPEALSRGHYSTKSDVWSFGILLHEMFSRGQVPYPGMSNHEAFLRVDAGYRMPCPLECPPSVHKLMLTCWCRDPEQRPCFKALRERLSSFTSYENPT

Chain of Tyrosine-protein kinase CSK (Homo sapiens) (P41240 2-450 limits assumed): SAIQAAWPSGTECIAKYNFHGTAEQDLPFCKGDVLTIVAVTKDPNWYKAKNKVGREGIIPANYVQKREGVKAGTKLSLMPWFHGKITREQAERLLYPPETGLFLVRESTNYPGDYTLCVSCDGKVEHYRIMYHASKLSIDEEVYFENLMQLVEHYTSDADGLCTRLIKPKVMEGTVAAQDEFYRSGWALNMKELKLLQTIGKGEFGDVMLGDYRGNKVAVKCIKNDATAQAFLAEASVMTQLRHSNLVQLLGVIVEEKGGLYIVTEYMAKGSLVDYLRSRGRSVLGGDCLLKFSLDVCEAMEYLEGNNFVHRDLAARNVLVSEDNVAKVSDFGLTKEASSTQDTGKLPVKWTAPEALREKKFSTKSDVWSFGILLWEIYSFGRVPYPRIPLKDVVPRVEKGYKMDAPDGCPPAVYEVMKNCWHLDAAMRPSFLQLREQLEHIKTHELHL

Regarding `N=C1NC(=O)/C(=C\c2ccc(-c3cccc([N+](=O)[O-])c3)o2)S1`, the Activity in [1] worked out at 101%; in [2], 98%; in experiment [3], 65%; in experiment [4] it was 92%; in experiment [5] it was 77%; in experiment [6], 95%. Besides, the Activity in experiment [7] is 104%; in [8], 90%; in [9] it was 55%; in [10], 100%; in [11], 96%; in experiment [12], 102%. The Activity came to 102% in [13]; 92% in experiment [14]; 76% in experiment [15]; 74% in [16]; 97% in experiment [17]; 107% in [18]. Moreover, the Activity in experiment [19] is 102%; in experiment [20] it was 94%; in experiment [21], 101%; in [22], 103%.
Turning to `C=CCOC(=O)c1cc(-c2ccc(/C=C3/NC(=S)NC3=O)o2)ccc1Cl`, the Activity in experiment [1] stood at 99%; in experiment [2], 94%; in experiment [3], 89%; in experiment [4] it was 100%; in experiment [5], 84%; in experiment [6], 90%. In addition, the Activity in [7] was determined as 98%; in experiment [8] it was 77%; in experiment [9] it was 45%; in experiment [10], 78%; in experiment [11], 102%; in experiment [12], 103%. In addition, the Activity in [13] was 104%; in experiment [14] it was 99%; in experiment [15], 104%; in [16] it was 68%; in [17], 89%; in [18], 95%. Further, the Activity in [19] was found to be 105%; in experiment [20], 110%; in experiment [21] it was 95%; in experiment [22], 106%.
